The data set in a line: Solubility (physico-chemical properties, Table 1). The data set is classed as physicochemical. The note with it: solvents in which the compound is soluble.

On to `CC(C)=CCC12C(=O)OC1CC=C2CO` (stereo not shown) [Percyquinnin], for which the Solubility entry is “Methanol, DMSO”.

These data come from patent US6596518B2, “Percyquinnin, a process for its production and its use as a pharmaceutical” (Aventis Pharma Deutschland GmbH, priority 2000, dated 2003).
